Values of other authors in patent publication US11744998B2, “Drug delivery devices with drug-permeable component and methods” (TARIS Biomedical LLC, priority 2015, dated 2023).
Where a name gives a salt, the structure may show the parent alone.

Details: water at 37° C.

SMILES | approximate solubility
Nc1ccn([C@@H]2O[C@H](CO)[C@@H](O)C2(F)F)c(=O)n1 [gemcitabine HCl] | ~80 mg/mL
Nc1ccn([C@@H]2O[C@H](CO)[C@@H](O)C2(F)F)c(=O)n1 [gemcitabine base] | ~15 mg/mL
Cc1ccc(O)c([C@H](CCN(C(C)C)C(C)C)c2ccccc2)c1 [tolterodine tartrate] | ~12 mg/mL
O=C(O[C@H]1C[C@H]2CC[C@@H](C1)[N+]21CCCC1)C(O)(c1ccccc1)c1ccccc1 [trospium chloride] | ~500 mg/mL
